Here are results for eleven compounds from patent US20120309739A1, “AKT / PKB INHIBITORS” (ALMAC DISCOVERY LIMITED, priority 2009, published 2012).

Common to all, as to type: biochemical
For experiment [1], the target named is T1, AKT1 (Homo sapiens, UniProt P31749).
T1 construct: purchased SignalChem
Kind of experiment: AKT Kinase Assay (IMAP fluorescent polarisation) vs AKT1. As to conditions: activated AKT1, FAM Crosstide substrate. The procedure: (§1) Testing of the compounds was performed using an AKT Kinase Assay:
(§2) Activated AKT isoforms 1, 2 and 3 were assayed utilising a 5′ FAM Crosstide (Seq. GRPRTSSFAEG-OH). The extent of kinase phosphorylation was determined by fluorescent polarisation using IMAP progressive binding reagent, which introduces binding beads which allow the reagent to specifically bind to phosphate residues via covalent co-ordination complex bonds.
(§3) iMAP binding solution stops Crosstide/kinase interaction and specifically binds phosphorylated substrates. The degree of phosphorylation is determined by fluorescent polarisation (excitation 485 nm; emission 528 nm) or the reduction in speed of rotation of the excited substrate.
(§4) The following materials were used in the assay: • a) Activated AKT isoforms (SignalChem.) dissolved in Complete Reaction buffer at a pre-determined concentration selected so that the assay was carried out in the linear range. • b) AKT substrate peptide: FAM Crosstide (R7110) Molecular Devices, diluted in complete reaction buffer. • c) iMAP Progressive Screening Express Kit (R8127) Molecular Devices • d) Complete Reaction Buffer containing 0.1% BSA, 10 mM Tris-HCl, 10 mM MgCl2, 0.05% NaN3 and 0.01% phosphate free BSA, 1 mM DTT • e) Progressive Binding Solution containing 75% Buffer A, 25% Buffer B and low volume Binding Reagent which contains the binding entity for the assay • f) ATP diluted in complete reaction buffer • g) Black polystyrene 384 well assay plates (Nunc). • h) Biotek Synergy 4 Hybrid Plate reader.
(§5) 50 μl of test compound was dissolved in DMSO (Sigma Aldrich) and serially diluted in complete reaction buffer to give a fourteen point half log dose response and plated into 384 well black plates. The compound was incubated at room temperature with activated AKT isoform ([…]) at the pre-determined concentration, for 45 minutes.
(§6) […] of ATP solution mixed with 2.5 μl of AKT substrate peptide (FAM Crosstide (R7110) Molecular Devices) were dispensed into each well and the plate centrifuged at 1000 rpm for 20 seconds to ensure homogenous mixing of reagents. The reaction mix was incubated in the dark for one hour at room temperature.
(§7) The kinase reaction was stopped by the addition of Progressive Binding Solution and the mixture allowed to equilibrate for one hour in the dark, at room temperature.
(§8) The fluorescent polarisation generated in each well was determined using a […] Synergy 4 Hybrid plate reader. In brief, each reaction solution was excited at 485 nm with the emission measured at 528 nm in both the parallel and perpendicular pathway.
(§9) The polarisation value generated in each well was calculated by Gen5 software (Biotek) and the % inhibition of kinase activity compared to vehicle control was calculated via GraphPad Prism. IC50 values for each compound were calculated by non-linear regression analysis using Prism software.
(§10) All plates were internally controlled by two methods. Firstly, by calculating the signal:noise ratio; based on kinase polarisation without inhibitor and polarisation generated by complete reaction buffer in the absence of activated kinase. Secondly by determining IC50 values generated by known inhibitors of the AKT isoforms.

The target of experiment [2] is T2, AKT3 (Homo sapiens, UniProt Q9Y243).
T2 construct: purchased SignalChem
T2 sequence (Q9Y243 whole entry): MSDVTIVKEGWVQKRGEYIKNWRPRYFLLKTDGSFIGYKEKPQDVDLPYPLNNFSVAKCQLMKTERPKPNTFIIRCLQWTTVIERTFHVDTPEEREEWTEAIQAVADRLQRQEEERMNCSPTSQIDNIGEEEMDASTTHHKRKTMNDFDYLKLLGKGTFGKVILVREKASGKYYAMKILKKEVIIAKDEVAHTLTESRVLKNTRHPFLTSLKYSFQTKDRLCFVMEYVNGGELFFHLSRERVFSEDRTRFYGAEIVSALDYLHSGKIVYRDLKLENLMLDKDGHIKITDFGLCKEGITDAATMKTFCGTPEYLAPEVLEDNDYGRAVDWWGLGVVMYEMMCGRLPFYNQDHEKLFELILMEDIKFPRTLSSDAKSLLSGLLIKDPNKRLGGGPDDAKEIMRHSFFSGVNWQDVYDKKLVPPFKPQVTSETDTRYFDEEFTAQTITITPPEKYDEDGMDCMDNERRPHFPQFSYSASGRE
In words: AKT Kinase Assay (IMAP fluorescent polarisation) vs AKT3. As to conditions: activated AKT3, FAM Crosstide substrate. The procedure: as §1, §2, §3, §4, §5, §6, §7, §8, §9, §10

The target in experiment [3] is T3, AKT2 (Homo sapiens, UniProt P31751).
T3 construct: purchased SignalChem
T3 sequence (P31751 whole entry): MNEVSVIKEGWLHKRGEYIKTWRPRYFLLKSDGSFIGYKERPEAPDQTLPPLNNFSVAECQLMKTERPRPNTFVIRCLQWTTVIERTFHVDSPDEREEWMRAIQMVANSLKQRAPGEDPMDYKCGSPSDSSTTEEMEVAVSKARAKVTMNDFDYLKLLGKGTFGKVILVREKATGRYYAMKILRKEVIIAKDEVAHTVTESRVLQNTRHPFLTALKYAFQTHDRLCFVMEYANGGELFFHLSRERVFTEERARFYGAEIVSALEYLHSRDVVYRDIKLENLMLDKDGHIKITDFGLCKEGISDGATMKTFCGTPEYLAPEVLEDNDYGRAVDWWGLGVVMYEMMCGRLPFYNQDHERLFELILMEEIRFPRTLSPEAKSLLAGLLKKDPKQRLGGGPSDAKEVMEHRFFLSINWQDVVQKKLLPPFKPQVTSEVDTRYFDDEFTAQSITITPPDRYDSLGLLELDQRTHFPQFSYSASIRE
Kind of experiment: AKT Kinase Assay (IMAP fluorescent polarisation) vs AKT2. The conditions noted are these: activated AKT2, FAM Crosstide substrate. As to the method:
as §1, §2, §3, §4, §5, §6, §7, §8, §9, §10

Where a name gives a salt, the structure may show the parent alone.

T1 sequence (P31749 whole entry): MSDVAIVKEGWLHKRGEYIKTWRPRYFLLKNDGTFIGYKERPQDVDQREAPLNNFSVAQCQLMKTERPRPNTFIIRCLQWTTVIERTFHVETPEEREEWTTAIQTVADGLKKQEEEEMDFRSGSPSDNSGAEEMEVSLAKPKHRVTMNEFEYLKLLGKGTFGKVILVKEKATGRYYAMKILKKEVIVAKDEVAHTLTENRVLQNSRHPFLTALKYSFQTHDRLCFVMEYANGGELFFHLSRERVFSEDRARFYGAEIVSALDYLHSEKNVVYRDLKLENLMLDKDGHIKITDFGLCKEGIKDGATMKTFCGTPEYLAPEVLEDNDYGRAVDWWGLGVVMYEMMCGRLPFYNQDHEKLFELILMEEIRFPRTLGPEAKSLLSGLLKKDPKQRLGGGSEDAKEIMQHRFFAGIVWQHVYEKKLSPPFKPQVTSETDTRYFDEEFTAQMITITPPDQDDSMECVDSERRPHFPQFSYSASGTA

Regarding `Cn1cc(-c2cn(C)c(=O)c3c(-c4ccccc4)c(-c4ccc(C5(N)CCC5)cc4)oc23)cn1` [Example 114, 2-(4-(1-Aminocyclobutyl)phenyl)-5-methyl-7-(1-methyl-1H-pyrazol-4-yl)-3-phenylfuro[3,2-c]pyridin-4(5H)-one], the IC50 (as a rule, the concentration that inhibits the measured activity by half) lay within 0.1 to 1 µM in experiment [1], 1 to 10 µM in experiment [2] and 0.1 to 1 µM in experiment [3].
As for `Cn1cc(-c2cncnc2)c2oc(-c3ccc(C4(N)CCC4)cc3)c(-c3ccccc3)c2c1=O` [Example 115, 2-(4-(1-Aminocyclobutyl)phenyl)-5-methyl-3-phenyl-7-(pyrimidin-5-yl)furo[3,2-c]pyridin-4(5H)-one], the results for the IC50 in experiment [1], in experiment [2] and in experiment [3] were 0.1 to 1 µM, over 10 µM and 1 to 10 µM, respectively.
The like results for `COc1ncc(Br)c2oc(-c3ccc(C4(N)CCC4)cc3)c(-c3ccccc3)c12` [Example 80, 1-(4-(7-Bromo-4-methoxy-3-phenylfuro[3,2-c]pyridin-2-yl)phenyl)cyclobutanamine] were, in that order, 0.1 to 1 µM, over 10 µM and 1 to 10 µM.
The like results for `NC1(c2ccc(-c3oc4ncc(-c5ccn[nH]5)nc4c3-c3ccccc3)cc2)CCC1` [Example 144, 1-(4-(7-Phenyl-2-(1H-pyrazol-5-yl)furo[2,3-b]pyrazin-6-yl)phenyl)cyclobutanamine] were, in that order, 1 to 10 µM, over 10 µM and 1 to 10 µM.
The like results for `CCn1cnc2oc(-c3ccc(C4(N)CCC4)cc3)c(-c3ccccc3)c2c1=O` [Example 104, 6-(4-(1-Aminocyclobutyl)phenyl)-3-ethyl-5-phenylfuro[2,3-d]pyrimidin-4(3H)-one, HCl] were, in that order, 1 to 10 µM, 1 to 10 µM and at most 0.1 µM.
For `NC1(c2ccc(-c3oc4ncc(N5CCOCC5)cc4c3-c3ccccc3)cc2)CCC1` [Example 28, 1-(4-(5-Morpholino-3-phenylfuro[2,3-b]pyridin-2-yl)phenyl)cyclobutanamine], the IC50 is over 10 µM in experiment [1], over 10 µM in experiment [2] and 1 to 10 µM in experiment [3].
`C#Cc1cnc2oc(-c3ccc(C4(N)CCC4)cc3)c(-c3ccccc3)c2n1` [Example 146, 1-(4-(2-Ethynyl-7-phenylfuro[2,3-b]pyrazin-6-yl)phenyl)cyclobutanamine]: the values for the IC50 in experiment [1], in experiment [2] and in experiment [3] were 1 to 10 µM, over 10 µM and 1 to 10 µM, respectively.
Turning to `CC(=O)Nc1cccc(-c2cnc3oc(-c4ccc(C5(N)CCC5)cc4)c(-c4ccccc4)c3n2)c1` [Example 151, N-(3-(6-(4-(1-Aminocyclobutyl)phenyl)-7-phenylfuro[2,3-b]pyrazin-2-yl)phenyl)acetamide, HCl], the half-maximal inhibitory concentration (IC50) in experiment [1] is 1 to 10 µM; in experiment [2], over 10 µM; in experiment [3], 1 to 10 µM.
Regarding `COc1nc(NCCO)nc2oc(-c3ccc(C4(N)CCC4)cc3)c(-c3ccccc3)c12` [Example 38, 2-((6-(4-(1-Aminocyclobutyl)phenyl)-4-methoxy-5-phenylfuro[2,3-d]pyrimidin-2-yl)amino)ethanol], the results for the IC50 in experiment [1], in experiment [2] and in experiment [3] were at most 0.1 µM, over 10 µM and 0.1 to 1 µM, respectively.
The like results for `Cn1ccc2oc(-c3ccc(C4(N)CCC4)cc3)c(-c3ccccc3)c2c1=O` [Example 4, 2-(4-(1-Aminocyclobutyl)phenyl)-5-methyl-3-phenylfuro[3,2-c]pyridin-4(5H)-one] were, in that order, 0.1 to 1 µM, over 10 µM and 1 to 10 µM.
Consider `COc1nc(N(C)C)nc2oc(-c3ccc(C4(N)CCC4)cc3)c(-c3ccccc3)c12` [Example 26, 6-(4-(1-Aminocyclobutyl)phenyl)-4-methoxy-N,N-dimethyl-5-phenylfuro[2,3-d]pyrimidin-2-amine], for which the 50% inhibitory concentration (IC50) in experiment [1] is 0.1 to 1 µM; in experiment [2], over 10 µM; in experiment [3], 1 to 10 µM.
